Literature values in US7704745B2 (priority 2001, dated 2010).

Test system: human hepatocyte and neuroblastoma cells
Conditions: cited from earlier work

Structure (SMILES)	effect on hepatocyte and neuroblastoma cell metabolism
CCOP(=O)(OCC)Oc1ccc([N+](=O)[O-])cc1 [paraoxon]	opposite effects
CCOP(=S)(OCC)Oc1ccc([N+](=O)[O-])cc1 [parathion]	opposite effects
